Experiments:
FGFR3 = biological target: T1, FGFR3 (Homo sapiens, UniProt P22607); test: Kinase binding assay (kinase-tagged T7 phage, affinity beads, qPCR), Kd; details: read-out: FGFR3 (Kd nM)
T1 construct: made in house; host or cells: E. coli (BL21-derived), T7 phage
In short: (§1)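 First, phage lysates carrying tagged kinase are made in E. coli at 32° C. Next, they are combined with blocked biotin-ligand streptavidin beads and compound at 0.9% final DMSO. Finally, eluted kinase is measured by qPCR and Kd is fitted with the Hill equation.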

FGFR4 = biological target: T2, FGFR4 (Homo sapiens, UniProt P22455); test: as above; details: read-out: FGFR4 (Kd nM)
T2 construct: made in house; host or cells: E. coli (BL21-derived), T7 phage
In short: as §1

FGFR2 = biological target: T3, FGFR2 (Homo sapiens, UniProt P21802); test: as above; details: read-out: FGFR2 (Kd nM)
T3 construct: made in house; host or cells: E. coli (BL21-derived), T7 phage
In short: as §1

FGFR1 = biological target: T4, FGFR1 (Homo sapiens, UniProt P11362); test: as above; details: read-out: FGFR1 (Kd nM)
T4 construct: made in house; host or cells: E. coli (BL21-derived), T7 phage
In short: as §1

[1] = tested on: KATO-III cell line (FGFR2 amplification); test: Cancer cell line cell viability assay (Cell Titer-Glo), 72 hr; assay type: cell-based; details: Homo sapiens, KATO III
In short: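 Following overnight attachment, each line receives compound in triplicate across nine 4-fold dilutions starting at 3 μM, with DMSO backfill for equal solvent. Luminescence after Cell Titer-Glo 2.0 addition gives percent viability versus DMSO control, fitted by 4-parameter logistic for IC50.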

[2] = tested on: KG-1 cell line (FGFR 1-fusion); test: as above; assay type: cell-based; details: Homo sapiens, KG-1, KG-1 cell line (FGFR1-fusion)
In short: (§2)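 Intracellular ATP was measured by Cell Titer-Glo 2.0 luminescence after cells were incubated with compound dilutions (top 3 μM, 4-fold, 9 doses). Values were expressed relative to DMSO-treated cells and IC50 was calculated from a variable-slope dose-response curve.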

[3] = tested on: RT112/84 cell line (FGFR3-fusion); test: as above; assay type: cell-based; details: Homo sapiens, RT112/84, RT112/84 cell line (FGFR3-fusion)
In short: as §2

[4] = tested on: HuH7 cell line (FGF19 amplification); test: Cancer cell line cell viability assay (Cell Titer-Glo), 120 hr; assay type: cell-based; details: Homo sapiens, Huh-7
In short: as §2

T3 sequence (P21802 22-821): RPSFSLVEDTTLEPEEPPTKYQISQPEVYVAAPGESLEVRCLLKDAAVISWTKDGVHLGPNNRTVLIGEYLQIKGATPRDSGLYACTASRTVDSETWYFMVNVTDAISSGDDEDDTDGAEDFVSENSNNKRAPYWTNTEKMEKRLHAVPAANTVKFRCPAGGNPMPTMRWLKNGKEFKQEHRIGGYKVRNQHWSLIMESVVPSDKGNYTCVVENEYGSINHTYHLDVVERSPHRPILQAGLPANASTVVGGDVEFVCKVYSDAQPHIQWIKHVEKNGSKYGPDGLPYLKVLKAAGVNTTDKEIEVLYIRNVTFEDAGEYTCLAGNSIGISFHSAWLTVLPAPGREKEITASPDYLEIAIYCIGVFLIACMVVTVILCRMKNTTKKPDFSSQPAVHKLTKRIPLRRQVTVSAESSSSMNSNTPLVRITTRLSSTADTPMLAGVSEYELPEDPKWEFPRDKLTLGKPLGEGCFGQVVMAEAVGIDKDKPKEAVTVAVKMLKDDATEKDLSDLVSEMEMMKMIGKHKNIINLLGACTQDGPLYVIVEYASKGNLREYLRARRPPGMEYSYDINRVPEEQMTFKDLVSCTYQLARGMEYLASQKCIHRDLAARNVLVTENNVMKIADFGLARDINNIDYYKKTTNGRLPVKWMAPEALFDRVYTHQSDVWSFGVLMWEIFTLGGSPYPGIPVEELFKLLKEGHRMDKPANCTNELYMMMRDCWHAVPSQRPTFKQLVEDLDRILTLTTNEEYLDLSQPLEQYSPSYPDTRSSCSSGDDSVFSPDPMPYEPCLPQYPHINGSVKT
T4 sequence (P11362 22-822): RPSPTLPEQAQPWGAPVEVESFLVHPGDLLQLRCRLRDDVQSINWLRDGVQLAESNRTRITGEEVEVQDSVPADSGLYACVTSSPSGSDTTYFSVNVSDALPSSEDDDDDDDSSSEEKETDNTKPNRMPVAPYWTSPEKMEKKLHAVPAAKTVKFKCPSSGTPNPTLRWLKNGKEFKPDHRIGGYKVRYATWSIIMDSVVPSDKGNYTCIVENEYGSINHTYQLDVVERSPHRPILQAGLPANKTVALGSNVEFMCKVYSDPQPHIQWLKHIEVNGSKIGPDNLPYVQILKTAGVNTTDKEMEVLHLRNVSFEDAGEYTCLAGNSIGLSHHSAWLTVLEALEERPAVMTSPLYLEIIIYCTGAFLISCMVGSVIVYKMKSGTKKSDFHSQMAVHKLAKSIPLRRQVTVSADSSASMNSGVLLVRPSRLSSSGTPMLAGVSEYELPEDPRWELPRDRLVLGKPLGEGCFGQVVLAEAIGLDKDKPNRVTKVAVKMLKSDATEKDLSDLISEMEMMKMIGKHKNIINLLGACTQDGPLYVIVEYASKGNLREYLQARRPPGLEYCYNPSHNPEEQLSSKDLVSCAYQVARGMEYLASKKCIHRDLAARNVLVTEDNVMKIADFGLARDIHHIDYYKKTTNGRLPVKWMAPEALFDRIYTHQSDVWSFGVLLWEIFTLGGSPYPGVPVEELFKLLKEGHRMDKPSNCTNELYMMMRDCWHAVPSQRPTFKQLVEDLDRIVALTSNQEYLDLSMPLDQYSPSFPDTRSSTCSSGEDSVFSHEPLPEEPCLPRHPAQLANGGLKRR
T2 sequence (P22455 22-802): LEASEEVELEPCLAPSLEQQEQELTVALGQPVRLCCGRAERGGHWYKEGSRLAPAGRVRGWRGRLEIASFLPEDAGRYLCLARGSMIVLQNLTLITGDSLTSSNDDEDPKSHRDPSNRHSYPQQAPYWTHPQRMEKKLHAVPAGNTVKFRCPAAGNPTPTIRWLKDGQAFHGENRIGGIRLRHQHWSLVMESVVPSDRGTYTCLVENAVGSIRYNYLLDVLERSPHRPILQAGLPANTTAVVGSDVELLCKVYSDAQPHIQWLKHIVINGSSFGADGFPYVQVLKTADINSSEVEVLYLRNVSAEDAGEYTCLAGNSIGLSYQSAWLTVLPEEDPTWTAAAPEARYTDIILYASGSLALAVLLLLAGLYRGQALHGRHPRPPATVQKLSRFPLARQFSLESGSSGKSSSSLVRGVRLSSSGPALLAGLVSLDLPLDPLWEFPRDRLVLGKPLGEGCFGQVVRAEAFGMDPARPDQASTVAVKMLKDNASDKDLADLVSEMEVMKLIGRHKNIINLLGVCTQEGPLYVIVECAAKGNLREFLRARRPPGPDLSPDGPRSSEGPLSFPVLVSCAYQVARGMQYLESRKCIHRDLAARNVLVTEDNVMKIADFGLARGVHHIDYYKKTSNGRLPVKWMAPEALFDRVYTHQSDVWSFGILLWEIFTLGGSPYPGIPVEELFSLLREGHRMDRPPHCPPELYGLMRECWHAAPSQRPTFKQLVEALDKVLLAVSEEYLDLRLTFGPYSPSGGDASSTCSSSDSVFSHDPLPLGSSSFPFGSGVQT
T1 sequence (P22607 23-806): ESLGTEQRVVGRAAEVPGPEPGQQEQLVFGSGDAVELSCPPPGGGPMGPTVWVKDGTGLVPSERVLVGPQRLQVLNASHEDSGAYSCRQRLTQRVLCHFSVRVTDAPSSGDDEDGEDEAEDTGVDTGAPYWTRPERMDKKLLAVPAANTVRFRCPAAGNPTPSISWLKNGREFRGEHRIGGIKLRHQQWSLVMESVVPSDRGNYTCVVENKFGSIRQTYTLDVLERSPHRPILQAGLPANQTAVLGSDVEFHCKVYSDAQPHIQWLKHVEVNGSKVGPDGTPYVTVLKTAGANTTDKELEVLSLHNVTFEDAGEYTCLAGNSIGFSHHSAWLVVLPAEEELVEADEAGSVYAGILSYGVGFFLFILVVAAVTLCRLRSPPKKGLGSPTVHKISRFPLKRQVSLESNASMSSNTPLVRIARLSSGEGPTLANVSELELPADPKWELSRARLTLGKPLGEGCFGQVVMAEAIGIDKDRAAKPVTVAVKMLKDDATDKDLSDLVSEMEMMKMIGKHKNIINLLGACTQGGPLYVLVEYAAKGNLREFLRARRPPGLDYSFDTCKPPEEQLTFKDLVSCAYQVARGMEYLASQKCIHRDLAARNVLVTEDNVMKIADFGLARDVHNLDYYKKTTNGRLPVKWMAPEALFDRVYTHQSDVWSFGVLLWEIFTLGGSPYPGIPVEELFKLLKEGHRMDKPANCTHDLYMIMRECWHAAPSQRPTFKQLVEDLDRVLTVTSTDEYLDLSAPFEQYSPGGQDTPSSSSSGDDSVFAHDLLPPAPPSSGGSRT

SMILES | Kd (FGFR3) [nM] | Kd (FGFR4) [nM] | Kd (FGFR2) [nM] | Kd (FGFR1) [nM] | IC50 [1] [µM] | IC50 [2] [µM] | IC50 [3] [µM] | IC50 [4] [µM]
COc1cc2[nH]nc(-c3cnc(N4CC(C)(N(C)CC5CC5)C4)c(C#N)c3)c2cc1O[C@H](C)c1c(Cl)cncc1Cl [Example 344, (R)-2-(3-((cyclopropyl-methyl) (methyl)amino)-3-methylazetidin-1-yl)-5-(5-(1-(3,5-dichloropyridin-4-yl)ethoxy)-6-methoxy-1H-indazol-3-yl)nicotinonitrile] | 1 to 50 | 1 to 50 | 1 to 50 | 1 to 50 | 0.05 to 0.2 | 0.2 to 1 | 0.0001 to 0.05 | 0.0001 to 0.05
COc1cc2[nH]nc(-c3cnc(N4CC(N)(CCS(C)(=O)=O)C4)c(C#N)c3)c2cc1O[C@H](C)c1c(Cl)cncc1Cl [Example 364, (R)-2-(3-amino-3-(2-(methylsulfonyl)ethyl)azetidin-1-yl)-5-(5-(1-(3,5-dichloropyridin-4-yl)ethoxy)-6-methoxy-1H-indazol-3-yl)nicotinonitrile] | 1 to 50 | 1 to 50 | 1 to 50 | 1 to 50 | 0.05 to 0.2 | > 1 | 0.05 to 0.2 | 0.0001 to 0.05
CNC1(CC#N)CN(c2ncc(-c3n[nH]c4cc(OC)c(O[C@H](C)c5c(Cl)cncc5Cl)cc34)cc2C#N)C1 [Example 153, (R)-2-(3-(cyanomethyl)-3-(methylamino)azetidin-1-yl)-5-(5-(1-(3,5-dichloropyridin-4-yl)ethoxy)-6-methoxy-1H-indazol-3-yl)nicotinonitrile] | 1 to 50 | 1 to 50 | 1 to 50 | 1 to 50 | 0.0001 to 0.05 | 0.05 to 0.2 | 0.0001 to 0.05 | 0.0001 to 0.05
COc1cc2[nH]nc(-c3cnc(N4CC(C)(N(C)CC(C)C)C4)c(C#N)c3)c2cc1O[C@H](C)c1c(Cl)cncc1Cl [Example 343, (R)-5-(5-(1-(3,5-dichloropyridin-4-yl)ethoxy)-6-methoxy-1H-indazol-3-yl)-2-(3-(isobutyl(meth-yl)amino)-3-methylazetidin-1-yl)nicotinonitrile] | 1 to 50 | 1 to 50 | 50 to 300 | 50 to 300 | 0.2 to 1 | > 1 | 0.05 to 0.2 | 0.2 to 1
COc1cc2[nH]nc(-c3cnc(N4CC(CC#N)(N(C)C)C4)c(C#N)c3)c2cc1O[C@H](C)c1c(Cl)cncc1Cl [Example 352, (R)-2-(3-(cyanomethyl)-3-(dimethylamino)-azetidin-1-yl)-5-(5-(1-(3,5-dichloropyridin-4-yl)ethoxy)-6-methoxy-1H-indazol-3-yl)nicotinonitrile] | 1 to 50 | 1 to 50 | 1 to 50 | 1 to 50 | 0.0001 to 0.05 | 0.0001 to 0.05 | 0.0001 to 0.05 | 0.0001 to 0.05
COc1cc2[nH]nc(-c3cnc(N4CC(N)(CC5CC5)C4)c(C#N)c3)c2cc1O[C@H](C)c1c(Cl)cncc1Cl [Example 359] | 1 to 50 | 1 to 50 | 1 to 50 | 1 to 50 | 0.05 to 0.2 | 0.05 to 0.2 | 0.05 to 0.2 | 0.0001 to 0.05
CCC1(NC)CN(c2ncc(-c3n[nH]c4cc(OC)c(O[C@H](C)c5c(Cl)cncc5Cl)cc34)cc2C#N)C1 [Example 351, (R)-5-(5-(1-(3,5-Dichloropyridin-4-yl)ethoxy)-6-methoxy-1H-indazol-3-yl)-2-(3-ethyl-3-(methyl-amino)azeti-din-1-yl)nicotinonitrile diHCl] | 1 to 50 | 1 to 50 | 1 to 50 | 1 to 50 | 0.0001 to 0.05 | 0.0001 to 0.05 | 0.0001 to 0.05 | 0.0001 to 0.05
COc1cc2[nH]nc(-c3cnc(N4CC(N)(CC(C)C)C4)c(C#N)c3)c2cc1O[C@H](C)c1c(Cl)cncc1Cl [Example 357, (R)-2-(3-amino-3-isobutylazetidin-1-yl)-5-(5-(1-(3,5-dichloropyridin-4-yl)ethoxy)-6-methoxy-1H-indazol-3-yl)nicotinonitrile] | 1 to 50 | 1 to 50 | 1 to 50 | 1 to 50 | 0.05 to 0.2 | 0.05 to 0.2 | 0.05 to 0.2 | 0.0001 to 0.05
COc1cc2[nH]nc(-c3cnc(N4CC(N)(CC=C(C)C)C4)c(C#N)c3)c2cc1O[C@H](C)c1c(Cl)cncc1Cl [Example 363, (R)-2-(3-amino-3-(3-methylbut-2-en-1-yl)azetidin-1-yl)-5-(5-(1-(3,5-dichloropyridin-4-yl)ethoxy)-6-methoxy-1H-indazol-3-yl)nicotinonitrile] | 1 to 50 | 1 to 50 | 1 to 50 | 1 to 50 | 0.05 to 0.2 | 0.2 to 1 | 0.0001 to 0.05 | 0.0001 to 0.05
COc1cc2[nH]nc(-c3cnc(N4CC(CC#N)(NC(C)C)C4)c(C#N)c3)c2cc1O[C@H](C)c1c(Cl)cncc1Cl [Example 152, (R)-2-(3-(cyanomethyl)-3-(isopropylamino)azetidin-1-yl)-5-(5-(1-(3,5-dichloropyridin-4-yl)ethoxy)-6-methoxy-1H-indazol-3-yl)nicotinonitrile] | 1 to 50 | 1 to 50 | 1 to 50 | 1 to 50 | 0.05 to 0.2 | 0.2 to 1 | 0.0001 to 0.05 | 0.0001 to 0.05
COc1cc2[nH]nc(-c3cnc(N4CC(N)(CC#N)C4)c(C#N)c3)c2cc1O[C@H](C)c1c(Cl)cncc1Cl [Example 345, 2-[3-amino-3-(cyanomethyl)azeti-din-1-yl]-5-[5-[(1R)-1-(3,5-dichloro-4-pyridyl)ethoxy]-6-methoxy-1H-indazol-3-yl]pyridine-3-carbonitrile] | 1 to 50 | 1 to 50 | 1 to 50 | 1 to 50 | 0.0001 to 0.05 | 0.05 to 0.2 | 0.0001 to 0.05 | 0.0001 to 0.05
COc1cc2[nH]nc(-c3cnc(N4CC(CC#N)(N5CCCC5)C4)c(C#N)c3)c2cc1O[C@H](C)c1c(Cl)cncc1Cl [Example 354, (R)-2-(3-(cyanomethyl)-3-(pyrrolidin-1-yl)azetidin-1-yl)-5-(5-(1-(3,5-dichloropyridin-4-yl)ethoxy)-6-methoxy-1H-indazol-3-yl)nicotinonitrile] | 1 to 50 | 1 to 50 | 1 to 50 | 1 to 50 | 0.0001 to 0.05 | 0.05 to 0.2 | 0.0001 to 0.05 | 0.0001 to 0.05
CCCC1(N)CN(c2ncc(-c3n[nH]c4cc(OC)c(O[C@H](C)c5c(Cl)cncc5Cl)cc34)cc2C#N)C1 [Example 360, (R)-2-(3-amino-3-propylazetidin-1-yl)-5-(5-(1-(3,5-dichloropyridin-4-yl)ethoxy)-6-methoxy-1H-indazol-3-yl)nicotinonitrile] | 1 to 50 | 1 to 50 | 1 to 50 | 1 to 50 | 0.05 to 0.2 | 0.05 to 0.2 | 0.0001 to 0.05 | 0.0001 to 0.05
C=CCC1(N)CN(c2ncc(-c3n[nH]c4cc(OC)c(O[C@H](C)c5c(Cl)cncc5Cl)cc34)cc2C#N)C1 [Example 362, (R)-2-(3-ally1-3-aminoazetidin-1-yl)-5-(5-(1-(3,5-dichloropyridin-4-yl)ethoxy)-6-methoxy-1H-indazol-3-yl)nicotinonitrile] | 1 to 50 | 1 to 50 | 1 to 50 | 1 to 50 | 0.05 to 0.2 | 0.05 to 0.2 | 0.0001 to 0.05 | 0.0001 to 0.05
CCC1(N)CN(c2ncc(-c3n[nH]c4cc(OC)c(O[C@H](C)c5c(Cl)cncc5Cl)cc34)cc2C#N)C1 [Example 365, 2-(3-amino-3-ethyl-azetidin-1-yl)-5-[5-[(1R)-1-(3,5-dichloro-4-pyridyl)ethoxy]-6-methoxy-1H-indazol-3-yl]pyridine-3-carbonitrile] | 1 to 50 | 1 to 50 | 1 to 50 | 1 to 50 | 0.05 to 0.2 | 0.0001 to 0.05 | 0.0001 to 0.05 | 0.0001 to 0.05
COc1cc2[nH]nc(-c3cnc(N4CC(N)(C(C)C)C4)c(C#N)c3)c2cc1O[C@H](C)c1c(Cl)cncc1Cl [Example 353, (R)-2-(3-amino-3-isopropylazetidin-1-yl)-5-(5-(1-(3,5-dichloropyridin-4-yl)ethoxy)-6-methoxy-1H-indazol-3-yl)nicotinonitrile] | 1 to 50 | 1 to 50 | 1 to 50 | 1 to 50 | 0.05 to 0.2 | 0.05 to 0.2 | 0.0001 to 0.05 | 0.0001 to 0.05

Reference: patent US20250368666A1, “INDAZOLE COMPOUNDS” (TYRA BIOSCIENCES, INC., priority 2022, published 2025)
